Laboratory results reported in ChEMBL document CHEMBL5344413, “Discovery of 4-(1,2,4-Oxadiazol-5-yl)azepan-2-one Derivatives as a New Class of Cannabinoid Type 2 Receptor Agonists for the Treatment of Inflammatory Pain” (J Med Chem, 2023).

Columns and labels:
Cannabinoid receptor 2 [1] = molecular target: T1, Cannabinoid receptor 2 (Homo sapiens, UniProt P34972); test: Agonist activity at human CB2 receptor expressed in CHO cells assessed as inhibition of forskolin-stimulated intracellular cAMP accumulation measured after 30 mins by Glosensor assay relative to control; format: functional, cell-based; settings: filed as agonist
T1 sequence (P34972 whole entry): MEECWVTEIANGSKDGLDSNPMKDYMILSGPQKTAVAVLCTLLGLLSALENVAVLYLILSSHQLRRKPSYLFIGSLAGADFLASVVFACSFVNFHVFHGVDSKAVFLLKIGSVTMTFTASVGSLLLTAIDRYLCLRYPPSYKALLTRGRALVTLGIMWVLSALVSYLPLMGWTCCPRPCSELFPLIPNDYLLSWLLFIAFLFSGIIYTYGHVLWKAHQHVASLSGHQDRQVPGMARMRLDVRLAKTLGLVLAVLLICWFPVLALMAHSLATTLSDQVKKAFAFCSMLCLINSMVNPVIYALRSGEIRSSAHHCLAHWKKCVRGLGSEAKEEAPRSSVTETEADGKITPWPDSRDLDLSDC

Cannabinoid receptor 2 [2] = molecular target: T1, Cannabinoid receptor 2; test: Agonist activity at human CB2 receptor expressed in CHO cells assessed as inhibition of forskolin-stimulated intracellular cAMP accumulation measured after 30 mins by Glosensor assay; format: functional, cell-based
Cannabinoid receptor 1 [3] = molecular target: T2, Cannabinoid receptor 1 (Homo sapiens, UniProt P21554); test: Agonist activity at human CB1 receptor expressed in CHO cells assessed as inhibition of forskolin-stimulated intracellular cAMP accumulation measured after 30 mins by Glosensor assay; format: cell-based
T2 sequence (P21554 whole entry): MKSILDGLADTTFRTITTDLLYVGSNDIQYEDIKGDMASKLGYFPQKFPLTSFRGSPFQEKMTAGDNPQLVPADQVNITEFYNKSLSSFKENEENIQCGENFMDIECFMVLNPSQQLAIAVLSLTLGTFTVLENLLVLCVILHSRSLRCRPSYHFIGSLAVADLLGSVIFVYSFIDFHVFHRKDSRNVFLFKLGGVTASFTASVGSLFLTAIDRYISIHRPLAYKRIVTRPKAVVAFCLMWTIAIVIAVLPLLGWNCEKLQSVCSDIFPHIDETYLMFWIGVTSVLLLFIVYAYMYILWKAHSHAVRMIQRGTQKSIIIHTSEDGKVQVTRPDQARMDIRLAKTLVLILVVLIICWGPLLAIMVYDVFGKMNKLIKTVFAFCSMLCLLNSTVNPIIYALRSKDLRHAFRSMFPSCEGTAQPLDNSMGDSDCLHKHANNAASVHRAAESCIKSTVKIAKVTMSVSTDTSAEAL

Cannabinoid receptor 1 [4] = molecular target: T2, Cannabinoid receptor 1; test: Inverse agonist activity at human CB1 receptor expressed in CHO cells assessed as forskolin-stimulated intracellular cAMP accumulation measured after 30 mins by Glosensor assay; format: cell-based
Homo sapiens = species: Homo sapiens; test: Selectivity ratio of EC50 for agonist activity at human CB1 receptor expressed in CHO cells to EC50 for agonist activity at human CB2 receptor expressed in CHO cells; format: cell-based
Cannabinoid receptor 2 [5] = molecular target: T1, Cannabinoid receptor 2; test: Inverse agonist activity at human CB2 receptor expressed in CHO cells assessed as forskolin-stimulated intracellular cAMP accumulation measured after 30 mins by Glosensor assay; format: functional, cell-based

| Emax (Cannabinoid receptor 2 [1]) [%] | EC50 (Cannabinoid receptor 2 [2]) [µM] | EC50 (Cannabinoid receptor 2 [5]) [µM] | SMILES | EC50 (Cannabinoid receptor 1 [3]) [µM] | EC50 (Cannabinoid receptor 1 [4]) [µM] | Ratio EC50 (Homo sapiens) |
| --- | --- | --- | --- | --- | --- | --- |
| 88 | 0.3 | – | O=C1CC(c2nc(-c3ccc(F)c4cn[nH]c34)no2)CCCN1c1ccccc1 (centres undefined) | > 10 | – | – |
| – | > 10 | – | O=C1CC(c2nc(-c3ccc(F)c4cn[nH]c34)no2)CCCN1c1ccc(C(F)(F)F)cc1 (centres undefined) | > 10 | – | – |
| 81 | 0.318 | – | O=C1CC(c2nc(-c3ccc(F)c4cn[nH]c34)no2)CCCN1c1ccc(F)c(F)c1 (centres undefined) | > 10 | – | – |
| – | > 10 | – | Fc1ccc(Nc2cccc(-c3nc(-c4ccccc4)no3)c2)cc1 | > 10 | – | – |
| – | > 10 | – | O=C1CC(c2nc(-c3ccc(F)cc3C(F)(F)F)no2)CCCN1c1ccc(F)cc1 (centres undefined) | > 10 | – | – |
| 93 | 0.0454 | – | O=C1CC(c2nc(-c3ccc(F)c4cn[nH]c34)no2)CCCN1c1ccccc1F (centres undefined) | > 10 | – | – |
| 112 | 0.805 | – | O=C1CC(c2nc(-c3ccc(F)c4cn[nH]c34)no2)CCCN1c1ccc(Cl)cc1 (centres undefined) | > 10 | – | – |
| – | > 10 | – | O=C1CC(c2nc(-c3ccc(F)cc3F)no2)CCCN1c1ccc(F)cc1 (centres undefined) | > 10 | – | – |
| 79 | 1.31 | – | O=C1CC(c2nc(-c3ccc(F)c4cn[nH]c34)no2)CCCN1c1cccc(F)c1 (centres undefined) | > 10 | – | – |
| – | > 10 | – | CC(=O)c1ccc(N2CCCC(c3nc(-c4ccc(F)c5cn[nH]c45)no3)CC2=O)cc1 (centres undefined) | > 10 | – | – |
| 97 | 1.21 | – | O=C1CC(c2nc(-c3ccc(F)c4ccccc34)no2)CCCN1c1ccc(F)cc1 (centres undefined) | > 10 | – | – |
| 80 | 0.0587 | – | O=C1C[C@@H](c2nc(-c3ccc(F)c4cn[nH]c34)no2)CCCN1c1ccc(F)cc1 | > 30 | – | – |
| 82 | 1.35 | – | Cc1ccc(N2CCCC(c3nc(-c4ccc(F)c5cn[nH]c45)no3)CC2=O)cc1 (centres undefined) | > 10 | – | – |
| – | > 10 | – | O=C(c1ccc(F)cc1)N1CC(c2nc(-c3ccccc3)no2)C1 | > 10 | – | – |
| 97 | 2.12 | – | O=C1CC(c2nc(-c3cccc(F)c3)no2)CCCN1c1ccc(F)cc1 (centres undefined) | > 10 | – | – |
| – | 3.3 | – | Cc1cc(F)ccc1-c1noc(C2CCCN(c3ccc(F)cc3)C(=O)C2)n1 (centres undefined) | > 10 | – | – |
| – | > 10 | – | CN1CCCC(c2nc(-c3ccc(F)c4cn[nH]c34)no2)CC1=O (centres undefined) | > 10 | – | – |
| 91 | 1.39 | – | O=C1CC(c2nc(-c3ccc(F)cc3)no2)CCCN1c1ccc(F)cc1 (centres undefined) | > 10 | – | – |
| 102 | 0.338 | – | O=C1CC(c2nc(-c3ccc(F)c4cn[nH]c34)no2)CCCN1c1cc(F)c(F)c(F)c1 (centres undefined) | – | > 10 | – |
| 91 | 0.445 | – | COc1cc(F)ccc1-c1noc(C2CCCN(c3ccc(F)cc3)C(=O)C2)n1 (centres undefined) | > 10 | – | – |
| – | > 10 | – | O=C1CC(c2nc(Cc3ccccc3)no2)CCCN1c1ccc(F)cc1 (centres undefined) | > 10 | – | – |

| Emax (Cannabinoid receptor 2 [1]) [%] | EC50 (Cannabinoid receptor 2 [2]) [µM] | EC50 (Cannabinoid receptor 2 [5]) [µM] | SMILES | EC50 (Cannabinoid receptor 1 [3]) [µM] | EC50 (Cannabinoid receptor 1 [4]) [µM] | Ratio EC50 (Homo sapiens) |
| --- | --- | --- | --- | --- | --- | --- |
| 92 | 0.332 | – | O=C1CC(c2nc(-c3ccc(F)c4cn[nH]c34)no2)CCCN1c1cccc(F)c1F (centres undefined) | > 10 | – | – |
| 100 | 0.11 | – | O=C1CC(c2nc(-c3ccc(F)c4cn[nH]c34)no2)CCCN1c1ccc(F)cc1F (centres undefined) | > 10 | – | – |
| 78 | 2.81 | – | O=C1CC(c2nc(-c3ccccc3)no2)CCCN1c1ccc(F)cc1 (centres undefined) | > 30 | – | > 10 |
| – | > 10 | – | O=C1CC(c2nc(Cc3ccc(F)cc3)no2)CCCN1c1ccc(F)cc1 (centres undefined) | > 10 | – | – |
| – | > 10 | – | Fc1ccc(Nc2ccc(-c3nc(-c4ccccc4)no3)cc2)cc1 | > 10 | – | – |
| – | > 10 | – | O=C1CC(c2nc(-c3ccccc3)no2)CCN1c1ccc(F)cc1 (centres undefined) | > 10 | – | – |
| 101 | 1.21 | – | COc1ccc(N2CCCC(c3nc(-c4ccc(F)c5cn[nH]c45)no3)CC2=O)cc1 (centres undefined) | > 10 | – | – |
| – | > 10 | – | O=C1CC(c2nc(-c3ccc(F)cn3)no2)CCCN1c1ccc(F)cc1 (centres undefined) | > 10 | – | – |
| – | > 10 | – | O=C1CC(c2nc(-c3ccccc3F)no2)CCCN1c1ccc(F)cc1 (centres undefined) | > 10 | – | – |
| – | > 10 | – | O=C1CC(c2nc(-c3ccncc3)no2)CCCN1c1ccc(F)cc1 (centres undefined) | > 10 | – | – |
| – | > 10 | – | O=C1CC(c2nc(-c3ccc(F)cc3Cl)no2)CCCN1c1ccc(F)cc1 (centres undefined) | > 10 | – | – |
| 74 | 2.05 | – | O=C1CC(c2nc(-c3ccc(F)c4cn[nH]c34)no2)CCCN1c1ccc(OC(F)(F)F)cc1 (centres undefined) | > 10 | – | – |
| – | > 10 | – | O=C1CC(c2nc(Cc3ccccc3F)no2)CCCN1c1ccc(F)cc1 (centres undefined) | > 10 | – | – |
| – | – | > 10 | O=C(NCCc1nc(-c2ccccc2)no1)c1ccc(F)cc1 | > 10 | – | – |
| – | > 10 | – | O=C1CC(c2nc(Cc3cccc(F)c3)no2)CCCN1c1ccc(F)cc1 (centres undefined) | > 10 | – | – |
| – | > 10 | – | O=C(c1ccc(F)cc1)N1CCC(c2nc(-c3ccccc3)no2)CC1 | > 10 | – | – |
| – | > 10 | – | O=C1C=C(c2nc(-c3ccccc3)no2)CCCN1c1ccc(F)cc1 | > 10 | – | – |
| 123 | 0.449 | – | O=C1CC(c2nc(-c3ccc(F)c4cc[nH]c34)no2)CCCN1c1ccc(F)cc1 (centres undefined) | > 10 | – | – |
| 102 | 0.0348 | – | O=C1C[C@H](c2nc(-c3ccc(F)c4cn[nH]c34)no2)CCCN1c1ccc(F)cc1 | > 30 | – | – |
| – | > 10 | – | O=C(c1ccc(F)cc1)N1CC2(CC(c3nc(-c4ccccc4)no3)C2)C1 | > 10 | – | – |
| – | > 10 | – | O=C1CC(c2nc(-c3ccc(Cl)cc3)no2)CCCN1c1ccc(F)cc1 (centres undefined) | > 10 | – | – |
